Measured values from a melting point compilation (Tetko et al.; mined from patent text by program, amines drawn as free bases though some values may be those of a salt).

Row | SMILES | melting point [°C]
1 | CC(=O)N[C@@H](CCc1ccc([N+](=O)[O-])cc1)C(=O)O | 211 to 213
2 | CCC(NC(=O)C1CC1)c1ccc(Cl)c2nc3n(c12)CCCN3c1ccc(Cl)cc1Cl (stereo not given) | 251 to 253
3 | CN(CCN1CCC(Nc2nc3ccccc3n2Cc2ccc(F)cc2)CC1)c1nccs1 | 143
4 | CCc1ccccc1S(=O)(=O)c1cc(N)c2ncccc2c1[N+](=O)[O-] | 213 to 216
5 | Cc1cc(Cl)c(-n2nc(C)n(C(F)F)c2=O)cc1O | 154 to 156
6 | Cc1oc(C=Cc2cccc(Cl)c2)nc1CCl | 86 to 87
7 | Cc1cc(C)c(CCCc2c(C)nc(N)nc2N)cc1C | 188 to 190
8 | O=C(OCC1(COC(=O)c2ccccc2)c2ccccc2-c2ccccc21)c1ccccc1 | 144 to 146
9 | COc1cc(C=C(C(C)=O)C(C)=O)cc(OC)c1OC | 83 to 86
10 | COc1nc(N)c(Cl)cc1C(=O)CCC1CCN(CC(O)C(C)(C)C)CC1 (stereo not given) | 134
11 | CC(C)(C)OC(=O)NCCCCCCNS(=O)(=O)c1ccc(Oc2ccccc2)cc1 | 77 to 78
12 | COc1ccc(CNc2nnc(N3CCC(CO)CC3)c3ccc(Cl)cc23)cc1Cl | 128 to 131
13 | c1cc(-c2csc(Cc3ncc[nH]3)n2)ccn1 | 178 to 180
14 | CCN1CCc2cc(Nc3ncc(Cl)c(Nc4ccc(N5CCOCC5)cc4OC)n3)c(OC)cc2CC1=O | 212 to 214
15 | CCCCCCCc1nc(-c2ccccc2)c(-c2ccccc2)n1CCCCCCCC(=O)O | 75 to 76
16 | CC(=O)NCCc1ccc(CO)cc1 | 72 to 73
17 | O=C1COCCN1c1ccc(N2C[C@@H](CN(Cc3ccccc3)Cc3ccccc3)OC2=O)cc1 | 140 to 145
18 | CC(C)N1C(Oc2ccccc2[N+](=O)[O-])=NS(=O)(=O)N=C1Oc1ccccc1[N+](=O)[O-] | 259 to 263
19 | NC(=CC(=O)N1CCn2c(nnc2C(F)(F)F)C1)Cc1cc(F)c(F)cc1F | 271

Row | SMILES | melting point [°C]
20 | COc1ccc(-c2nc(SCCCSc3nc(-c4ccc(OC)cc4)c(-c4ccc(OC)cc4)[nH]3)[nH]c2-c2ccc(OC)cc2)cc1 | 128 to 130
21 | O=[N+]([O-])c1ccc(/C=C/c2ccccn2)cc1 | 136 to 139
22 | O=C(c1cn(-c2cccc(-c3ccccc3)c2)cn1)n1cccn1 | 124 to 127
23 | COC1(C2=NCCN2)COc2c(F)cccc2O1 (stereo not given) | > 260
24 | CCc1cc2c(Cl)cc(F)c(-n3c(=O)cc(C(F)(F)F)n(N)c3=O)c2o1 | 145 to 147
25 | O=C1C(=O)c2ccc(-c3cccnc3)cc2C2=C1SCC1(CCNCC1)O2 | 213 to 215
26 | COc1cncnc1OCc1ccc(C(C)(C)C)cc1 | 58 to 59
27 | COc1ccc(C(O)c2ccccn2)cc1OC (stereo not given) | 92 to 94
28 | CCOP(=O)(CCOCn1cnc2c(OC)ncnc21)OCC | 140 to 141
29 | O=C1Oc2ccccc2NC1Cl (stereo not given) | 133 to 136
30 | CS(=O)(=O)c1ccc(C2=C(c3ccc(Cl)c(Cl)c3)CCC2)cc1 | 100 to 101
31 | CCOC(=O)n1c(Cc2ccccc2)noc1=O | 129
32 | CC(C)[Si](OCCOc1cc(CO)ccc1Br)(C(C)C)C(C)C | 62.2
33 | Cc1ncccc1-c1nc(C(F)(F)F)cn1-c1ccc(S(N)(=O)=O)cc1 | 235 to 237
34 | ClCCNc1ccnc2cc(Cl)ccc12 | 239 to 240
35 | COc1ccc2c(c1)cc(Cc1cc3cccc(OC)c3n1S(=O)(=O)c1ccccc1)n2S(=O)(=O)c1ccccc1 | 168 to 170
36 | CCN1C(=O)C(C)(C)C(=O)N(C)c2cc(CN(CCn3cc(C)c4occc4c3=O)Cc3scnc3C)ccc21 | 134 to 136
37 | CCC(=Cc1cn(CC(=O)N(C)CCc2ccccc2)c2cccc(OCc3ccccc3)c12)C(=O)O | 170 to 174
38 | COc1ccc(-c2ccc(C(=O)O)cc2)cc1-c1ccc2c(c1)C(C)(C)CCC2(C)C | 251 to 255

More lines, now with the values ahead:

Row | melting point [°C] | SMILES
39 | 198 to 199 | CN(C)C(=O)Sc1ccc(C(=O)c2ccc([N+](=O)[O-])cc2)cc1
40 | 158 to 160 | COC(=O)c1ccccc1Sc1c(O)c2c(Cl)cc(Cl)cc2[nH]c1=O
41 | 69 to 71 | COC(=O)C(=O)c1cc(OC)c(OCCOc2ccc3ccccc3c2)c(OC)c1
42 | 180 to 183 | Cc1ccccc1-c1c(CC(=O)O)c(=O)oc2ccc(Cl)cc12
43 | 124 to 126 | Cc1ccc([C@H](CC(=O)O)NC(=O)Nc2c(OCc3ccccc3)cc(C)n(Cc3ccccc3)c2=O)cc1
44 | 246 to 249 | O=C(O)CN1C(=O)C(=CC=Cc2ccccc2-c2ccccc2)SC1=S
45 | 179 to 182 | O=C(O)C1c2cc(Br)ccc2COc2ccc(Br)cc21 (stereo not given)
46 | 143 to 147 | CCCCOc1cc2cc(C(=O)OC)c(C(=O)OC)c(-c3ccnc(Cl)c3)c2cc1OC
47 | 112 | CC(C)(Oc1ccc(C2CCOCC2)cc1)C(=O)O
48 | 222 | COc1ccc2ccc(N3C(=O)C4=C(SCCO4)C3O)nc2n1 (stereo not given)
49 | 72 to 74 | CCOC(=O)CC(=O)c1cccc(-n2ccnn2)c1
50 | 199 to 200 | CN(C)C/C=C/C(=O)N1CCOc2cc3ncc(C#N)c(Nc4ccc(F)c(Cl)c4)c3cc21
51 | 127 to 129 | COc1ccc2c(=O)c3ccccc3oc2c1
52 | 171 to 173 | COc1ccc(C2=NNC(=O)CC2c2ccc(OC)c(F)c2)cc1 (stereo not given)
53 | 54 to 56 | COc1ccc(N(C(=O)c2ccc(OC)c(F)c2)c2ccc(F)cc2)cc1
54 | 122 to 124 | CCCc1c(SCCCOc2ccc3c(=O)cc(CCC(=O)O)oc3c2CCC)ccc(C(C)=O)c1O

Row | melting point [°C] | SMILES
55 | 67 to 70 | COC(=O)COc1ccc(C(C)=O)c(OCCCBr)c1
56 | 80 to 90 | O=C(CC=C(Cl)Cl)Oc1ccc([N+](=O)[O-])cc1
57 | 96 to 98 | COC(=O)Cc1ccc(C(=O)c2ccccc2)n1C
58 | 178 to 180 | COc1ccccc1COc1ccc(S(=O)(=O)c2ccc(C)nc2Nc2ccc(Cl)cc2C#N)cc1
59 | 62 to 64 | COc1ccc(Oc2nccnc2Cl)cc1
60 | 118 to 120 | COc1cc(C(C)=O)ccc1OCCCN1CCC(c2noc3cc(F)ccc23)CC1
61 | 146 to 147 | CC1(C)Oc2ccc(OC(F)(F)F)cc2[C@@H](NC(=O)c2ccco2)[C@@H]1O (relative stereo)
62 | 162 to 165 | COC(=O)N(CC(=O)O)C(=O)c1c(Cl)ccc2c(C(F)(F)F)c(OC)ccc12
63 | 117 to 118 | CCOC(=O)Cc1ccc(NC(=O)CCc2cnoc2-c2ccc(Cl)cc2)cc1
64 | 170 to 172 | CCCc1c(OCc2cccn3c(=O)c(C(=O)O)cnc23)ccc(C(C)=O)c1O
65 | 199 to 201 | CC(=O)c1ccccc1-c1ccc(C(=O)O)cc1
66 | 148 to 150 | CN1CC(C(=O)N(C)Cc2ccc(Cl)c(Cl)c2)=C(O)C1=O
67 | 167 to 177 | O=C(O)c1ccc(Br)cc1COc1ccc2c(c1)OCO2
68 | 174 to 177 | COc1ccc(/C(C)=C/C=C/C(=O)O)cc1
69 | 104 to 106 | O=C(CC[C@H](NC(=O)OCc1ccccc1)C(=O)OCc1ccccc1)ON1C(=O)CCC1=O
70 | 104 to 106 | COc1ccc(OCCCCCC(=O)O)c(C=O)c1
